Here are results for four compounds from patent US7342026B2, “Substituted quinolines for the treatment of protozoa and retrovirus co-infections” (priority 2001, dated 2008).

Series [1] relates to amastigotes of Trypanosoma cruzi (Tulahuen strain). Briefly: Amastigotes of Trypanosoma cruzi in peritoneal macrophages. Conditions: for IC50: read-out: T. cruzi (amastigotes) IC50. It is filed as cell-based.
Method: c) Tests on Amastigotes of Trypanosoma cruzi
Peritoneal macrophages from Balb/c mice are collected, washed in Dulbecco PBS and then distributed in 96-well plates in a proportion of 3×10^4 cells per 100 μl and per well, in RPMI-1640 medium supplemented with 10% FCS and antibiotics.
After 24 hours at 37° C., 10^5 trypomastigotes are added with serial 2-fold dilutions of the various substituted quinolines. The cultures are then incubated at 37° C. for 4 days in a humid atmosphere (5% CO2-95% air). After fixing, and then staining with Giemsa, the antiparasitic activity is assessed by counting the extracellular trypomastigotes and the intracellular amastigotes.
The test system of series [2] is HIV-1 (molecular clone pLN4-3). Briefly: microbe, parasite or virus in culture. Format: cell-based, human immunodeficiency virus (HIV-1). Conditions: read-out: Antiretroviral activity IC50. The text has this: e) Tests on the Replication of HIV-1
CEM4fx cells are infected de novo with the molecular clone pLN4-3 of HIV-1, and simultaneously treated with the substituted quinolines to be tested, dissolved beforehand in DMSO. The virus multiplies for three days, and then the presence of infectious virions is detected in the culture supernatant (RPMI medium) by reinfecting “P4” cells which have a reporter gene which is expressed when they are infected with the virus. The viral load is quantified after culturing for 72 hours, by two methods: estimation of the viral load by infection of HeLa-βgal CD4^+ cells and determination of the amount of viral protein p24 by an ELISA assay.

Series [3] can be described thus: Cytotoxicity with respect to host CEM4fx cells (MTT bioconversion assay). Format: cell-based. The note with it: human, CEM4fx cells (host cells). As for the experimental part:
(§1) Moreover, the cytotoxicity of the quinolines with respect to the host cells is measured by an MTT [3-(4,5-dimethylthiazol-2-yl)-2,5-diphenyltetrazolium bromide]bioconversion assay. All the assays are carried out in triplicate.

Series [4] deals with circulating forms of Trypanosoma brucei (S427 strain). Briefly: microbe, parasite or virus in culture. It is filed as cell-based. Conditions: for IC50: read-out: T. brucei IC50.
Method: d) Tests on the Circulating Forms of Trypanosoma brucei
The circulating forms of Trypanosoma brucei are cultured in MEM medium (minimum essential medium; GIBCO-BRL, No. 072-1100) to which Earle's salts have been added and supplemented with 1 mg/ml of glucose, 2.2 mg/ml of NaHCO3, 10 mM of Hepes, 2 mM of sodium pyruvate, 0.2 mM of 2-mercaptoethanol, 0.1 mM of hypoxanthine and 15% of inactivated horse serum.
The cultures are maintained at 37° C. in 24-well plates in a humid atmosphere (5% CO2-95% air) and the passages are carried out every 2 or 3 days at a density of 10^3 to 10^5 trypomastigotes per ml. The activity of the substituted quinolines is tested in triplicate in 96-well plates in which 10^3 parasites originating from an exponential growth phase are distributed per well, in the presence of the various solutions of substituted quinolines in a final volume of 200 μl. After culturing for 48 hours, the trypanocidal activity is assessed by counting, with a Neubauer cell, the number of live parasites per well.
Series [5] has as its system Leishmania infantum (MHOM/FR/91/LEM2259V). Briefly: Balb/c mice infected with visceral leishmaniasis (Leishmania infantum). Format: in vivo. Conditions: 10 days, quinolines oral 25 mg/kg/day, Glucantime subcutaneous 100 mg/kg/day; for Number of parasites in the liver per gram / Number of parasites in the spleen per gram: n=8; for % reduction in the number of parasites in the liver / % reduction in the number of parasites in the spleen: versus without treatment. As for the experimental part:
b) Tests Carried on Laboratory Animals Infected with Visceral Leishmaniasis (Leishmania infantum): 1/Laboratory Animals and Parasites
The Balb/c mice were infected with Leishmania infantum parasites at the promastigote stage (reference: MHOM/FR/91/LEM2259V), a strain isolated from a patient carrying AIDS. This strain is maintained in Schneider's drosophila culture medium (Gibco, USA) supplemented with 20% of fetal calf serum. The infectious promastigotes are cultured for 7 days and then counted. Each mouse is then infected intravenously with 0.2 ml of culture medium containing 10^7 promastigotes.
Counting of amastigotes forms in the liver and spleen.
After the treatments have been stopped and the animals sacrificed, the viscera, liver and spleen are weighed and collected in a Petri dish. Each organ is mounted several times on a degreased glass slide which, fixed and stained by the May-Grünwald-Giemsa technique, makes it possible to determine the number of amastigote forms per 500 nucleated cells.
The results are expressed in Table VI.

For series [6], the system named is amastigotes of Leishmania amazonensis. Briefly: Amastigotes of Leishmania amazonensis in infected macrophages (leishmanicidal activity). Format: cell-based. Conditions: for L. amazonensis IC100: 100% inhibitory concentration, intracellular amastigotes in BALB/c macrophages, 30 hours after addition.
Method: The strain of Leishmania amazonensis is maintained by successive passages in “nude” mice (nu/nu). The amastigotes are isolated from the lesions developed on the footpads, and purified according to the method described by Antoine et al. (Parasitology, 1989, 99: 1).
The leishmanicidal activity of the quinolines is determined 30 hours after addition of the solutions of substituted quinolines. It is based on a more or less large, or even complete, decrease, firstly, in the size of the parasitophorous vacuoles and, secondly, in the number of live intracellular amastigotes.
Another series concerns macrophages. Briefly: Cytotoxicity on macrophages. It is filed as cell-based, BALB/c mice. As for the experimental part: The macrophages, which will be used as host cells for the leishmania, are obtained after multiplication and differentiation of medullary precursors from BALB/c mice. This culture is prepared in the presence of supernatant from a conditioned line of fibroblasts L-929, and source of “Macrophage Colony Stimulating Factor”. After culturing for 5 days on a hydrophobic support, the adherent macrophages are recovered and then distributed in flat-bottomed 96-well plates for cell culture, in a proportion of 4×10^4 macrophages per well. The macrophages are then infected with purified amastigotes (4 parasites per macrophage) and incubated at 34° C. for 24 hours to allow development of parasitophorous vacuoles and multiplication of parasites. Under these conditions, more than 95% of the macrophages are infected.
The solutions of the substituted quinolines to be tested are prepared in DMSO before being added, at various concentrations, to the infected macrophage cultures.
The results obtained with the substituted quinolines, assigned Nos. 1, 2, 4, 6 to 11, 13 to 20, 23 to 34, 37 and 38 in Table I, are given in Table II below as regards their activity on the amastigotes of Leishmania amazonensis, of Leishmania donovani and of Leishmania infantum, and also their cytotoxicity with respect to the macrophages.

The subject of the next series is CEM4fx cells. Briefly: Cytotoxicity with respect to host CEM4fx cells (MTT bioconversion assay). Format: cell-based. As for the experimental part: as §1
The subject of series [7] is Leishmania amazonensis (IFLA/BR/67/PH8). Conditions: 15 days, quinolines oral 25 mg/kg/day, Glucantime subcutaneous 100 mg/kg (28 mg Sbv/kg).
Text: a) Tests Carried Out on Laboratory Animals Infected with Cutaneous Leishmaniasis (Leishmania amazonensis):
The experimental animals are male or female approximately 6- to 8-week-old Balb/c mice weighing 18-24 g, subsequently reared for reproduction in the animal house of the Instituto de Investigaciones en Ciencias de la Salud (IICS), Asuncion, Paraguay. Golden hamsters (Mesocricetus auratus) are used to maintain these strains and as reservoirs for L. amazonensis parasites.
The Balb/c mice are infected with Leishmania amazonensis parasites, at the amastigote stage of the reference strain IFLA/BR/67/PH8, subcutaneously in the ventral pad of the right rear foot, the left foot remaining as a control. The amount of amastigotes inoculated is 2×10^6 amastigotes in 50 μl of phosphate buffer saline (PBS) for L. amazonensis.
The treatments begin once the infection is well established, mainly in general 5 to 6 weeks after inoculation of the L. amazonensis amastigotes. The reference medicinal product chosen is Glucantime® or meglumine antimoniate from Aventis (France).
The untreated control mice are given 50 μl of a solution of Tween 80 with PBS.
Measurement of the lesion: the diameters of the lesions on the infected foot and on the control foot are measured using a micrometer with 1/10 mm graduations, once a week for the duration of the experiment. The first measurements begin 48 hours after inoculation of the parasites. Calculating the difference in the two measurements gives the thickness of the lesion.
The 5 ml of puree obtained are centrifuged twice. The layer containing the amastigotes is subjected to counting of the number of parasites using a Neubauer cell. Five counts are performed on each amastigote layer. The number of amastigote forms is determined using the Stauber formula which takes into account the weight of the lesion: A/N×W×coefficient of the Neubauer cell • A=number of amastigotes, N=number of nuclei W=weight of the lesion
The results are expressed by the calculation of the arithmetic mean of the diameters of the lesions measured once a week and, at the end of the protocol, after sacrifice of the mice, of the weights of the lesions and of the number of amastigotes. A Student's test (t-test) is used for the statistical analysis of all the data. The comparison is made between “control” groups with a “treatment” group per pair. A value of P<0.05 is considered to be statistically significant.
For series [8], the system named is amastigotes of Leishmania infantum (IPZ229/1/89). Briefly: microbe, parasite or virus in culture. It is filed as cell-based. The text has this: (§2) b) Tests on Amastigotes of Leishmania donovani and Leishmania infantum
(§3) The Leishmania donovani and Leishmania infantum strains are maintained by successive passages in golden hamsters. The amastigotes are isolated from the spleens of the infected hamsters and brought into contact with the purified macrophages.
(§4) Twenty-four hours after intraperitoneal injection of Balb/c mice with a 2% starch solution, the peritoneal macrophages of these mice are collected, washed in Dulbecco PBS and then distributed in Lab-tek® culture chambers, in a proportion of 4×10^4 cells per 100 μl per well in RPMI-1640 medium supplemented with 10% of FCS and antibiotics. After 24 hours at 37° C. in a humid atmosphere (5% CO2), the macrophages are brought into contact with purified amastigotes (3 parasites per macrophage) in a final volume of 200 μl for 4 hours. The medium is then removed in order to eliminate the extracellular parasites, and replaced with 100 μl of fresh medium.
(§5) Twenty-four hours after the beginning of infection, the solutions of substituted quinolines prepared as described in paragraph a) above are added and the leishmanicidal activity is determined after 48 hours by counting the number of parasites still alive in the fixed and Giemsa-stained cells.

Series [9] has as its system amastigotes of Leishmania donovani (MHOM/ET/67/L82). Briefly: microbe, parasite or virus in culture. It is filed as cell-based.
Text: as §2, §3, §4, §5

The subject of series [10] is amastigotes of Leishmania infantum (MHOM/MA(BE)67). Briefly: Amastigotes of Leishmania infantum (MHOM/MA(BE)67) in peritoneal macrophages. Format: cell-based.
The mark [11] stands for this setting: Trypanosoma cruzi, TULAHUEN, Peritoneal macrophage, in Mus musculus, 96 h.
Setting [12] is: Balb/c peritoneal macrophages, 4 days.
The mark [13] stands for this setting: HIV-1 replication in CEM4fx cells, 72 hours.
Where [14] appears, read: amastigotes in Balb/c peritoneal macrophages, 48 hours.

≈ marks a conversion by molar mass, not a printed value. Read-outs that look alike come from different tables or passages of the source. Marks after values point to notes of the source that are not given here.

As to `O=CC=Cc1ccc2ccccc2n1` [Quinoline 9, 3-(2-quinolyl)propenal], the IC50 in series [1] (setting [11]) stood at 5 µM. In [2] (Human immunodeficiency virus 1, 72 h), the IC50 was 0.6 µM. Also, in [3], the IC50 worked out at 2 µM. Also, the IC50 in [4] (Trypanosoma brucei, 48 h) turned out to be 19 µM. Moreover, in series [5], the “Number of parasites in the liver per gram” value is listed as 3.8 × 10^6 a, e per gram; the “Number of parasites in the spleen per gram” value is 2.2 × 10^6 b per gram; the “% reduction in the number of parasites in the liver” value was −91.6%; the “% reduction in the number of parasites in the spleen” value was −47.6%. Also, in series [6], the “L. amazonensis IC100” value is 0.781 µg/mL. In the series with macrophages (BALB/c, mouse), the Cytotoxicity on macrophages is 1.56 µg/mL.
With `CCCCCc1ccc2ccccc2n1` [Quinoline 20], the IC50 was 19 µM in [1] (setting [12]); 2 µM in series [2] (setting [13]); 9 µM with CEM4fx cells; 13 µM in series [4] (circulating forms, culturing for 48 hours). The “L. amazonensis IC100” value in series [6] was greater than 50 µg/mL. This compound also returned a Cytotoxicity on macrophages with macrophages (macrophages from BALB/c mice) greater than 100 µg/mL.
As to `COC(=O)/C=C/c1ccc2ccccc2n1` [Quinoline 23, methyl E-3-(2-quinolyl)-2-propenoate], the IC50 was 15 µM in series [1] (setting [11]); 16 µM in series [4] (Trypanosoma brucei, 48 h); 0.4 to 2.2 µg/mL (≈ 1.88 to 10.3 µM) in series [8] (Leishmania infantum, Peritoneal macrophage, in Mus musculus, 48 h, read-out: L. infantum (IPZ229/1/89) IC50); 3.3 to 30 µg/mL (≈ 15.5 to 141 µM) in series [9] (Leishmania donovani, Peritoneal macrophage, in Mus musculus, 48 h, read-out: L. donovani IC50); 26 µM in series [10] (Leishmania infantum, Peritoneal macrophage, in Mus musculus, 48 h, read-out: L. infantum (MHOM/MA (BE) 67) IC50). For the same compound, the “activity on Trypanosoma cruzi (in words)” value in series [1] (comment on Table III) is “less advantageous”. The “Mean of the number of parasites in the lesion per gram” value in series [7] (n=8) was 3.1 × 10^6 per gram. For the same compound, in series [7] (n=8), the “Weight of lesions (mean ± standard deviation)” value is recorded as 0.059 ± 0.010 g. Besides, the “% reduction in the number of parasites in the lesion” value in series [7] (versus untreated controls) was −88%**. For the same compound, in series [4] (comment on Table III), the “activity on Trypanosoma brucei (in words)” value is reported as “less advantageous”. Moreover, the “Number of parasites in the liver per gram” value in series [5] is 1.8 × 10^7 d per gram. Further, the “Number of parasites in the spleen per gram” value in series [5] is reported as 1.5 × 10^6 c, f per gram. In addition, in series [5], the “% reduction in the number of parasites in the liver” value is listed as −60.0%. In addition, the “% reduction in the number of parasites in the spleen” value in [5] was −64.3%. The “L. amazonensis IC100” value in [6] came out at 12.5 µg/mL. In addition, the “activity on Leishmania amazonensis (in words)” value in series [6] (comment on Table II) is “marked activity”. In series [8] (comment on Table II), the “activity on the IPZ229/1/89 strain of Leishmania infantum (in words)” value is given as “marked activity”. In addition, in series [9] (comment on Table II), the “activity on Leishmania donovani (in words)” value is “marked activity”. The Cytotoxicity on macrophages in the series with macrophages (BALB/c, mouse) came out at 50 µg/mL. For the same compound, the “activity on the MHOM/MA(BE)67 strain of Leishmania infantum (in words)” value in [10] (comment on Table II) is given as “less advantageous”.
Take `C[Si](C)(C)C#Cc1ccc2ccccc2n1` [Quinoline 26]: the IC50 worked out at 8 µM in series [1] (setting [12]), 0.9 µM in series [2] (setting [13]) and 3 µM with CEM4fx cells. Moreover, the “L. amazonensis IC100” value in series [6] (listed as 26) came to 12.5 µg/mL. The “L. infantum (IPZ229/1/89) IC50” value in series [8] (setting [14]) came out at 10.9 µg/mL. In series [9] (setting [14]), the “L. donovani IC50” value worked out at 1.7 µg/mL. The Cytotoxicity on macrophages in the series on macrophages (macrophages from BALB/c mice) amounted to 1.56 µg/mL.
